Literature values in patent US20070053923A1, “Dna vaccine composition with enhanced immunogenicity” (priority 2003, published 2007).

System: immune cells
Conditions: via FPR and FPRL1, as reported

## WKYMVM-NH2
  Activation of immune cells: potent activator of immune cells
